Laboratory results published in the supplement of paper PMC11562712.

Assay: first-order primary biodegradation rate constant k (sorption-corrected, fDis-corrected) (d-1); higher = faster biodegradation
Procedure: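 Modified OECD 309 water-sediment test. River water plus sieved sediment (50 g wet solid/L) from European river segments (DE, CH, ES, EL) was spiked with a mixture of 129 compounds at 1 ug/L each and incubated in the dark at river temperature for 10 days. The water phase was analysed by UHPLC-Orbitrap-MS. The first-order primary biodegradation rate constant k (d-1) is k_observed, corrected for dissipation in sterile sorption controls and divided by the dissolved fraction fDis; it was fitted over 3 replicate incubations. Invalid fits (p > 0.05, n < 5, not available, concentration increase) are excluded.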

[1] = river segment: Germany (DE) H_Contam, incubation temperature 24 °C
[2] = river segment: Germany (DE) T_Contam, incubation temperature 24 °C
[3] = river segment: Germany (DE) T_Pris, incubation temperature 24 °C
[4] = river segment: Greece (EL) A_Contam, incubation temperature 19 °C
[5] = river segment: Greece (EL) G_Pris, incubation temperature 19 °C
[6] = river segment: Greece (EL) L_Contam, incubation temperature 19 °C
[7] = river segment: Spain (ES) B_Contam, incubation temperature 24 °C
[8] = river segment: Spain (ES) C_Contam, incubation temperature 24 °C
[9] = river segment: Spain (ES) L_Contam, incubation temperature 24 °C
[10] = river segment: Switzerland (CH) C_Contam, incubation temperature 17 °C
[11] = river segment: Switzerland (CH) R_Contam, incubation temperature 17 °C
[12] = river segment: Switzerland (CH) U_Contam, incubation temperature 17 °C
[13] = river segment: Switzerland (CH) U_Pris, incubation temperature 17 °C
[14] = river segment: Spain (ES) F_Pris_Salt, incubation temperature 24 °C
[15] = river segment: Greece (EL) G_Contam, incubation temperature 19 °C

Structure (SMILES)	first-order primary biodegradation rate constant k [1]	first-order primary biodegradation rate constant k [2]	first-order primary biodegradation rate constant k [3]	first-order primary biodegradation rate constant k [4]	first-order primary biodegradation rate constant k [5]	first-order primary biodegradation rate constant k [6]	first-order primary biodegradation rate constant k [7]	first-order primary biodegradation rate constant k [8]	first-order primary biodegradation rate constant k [9]	first-order primary biodegradation rate constant k [10]	first-order primary biodegradation rate constant k [11]	first-order primary biodegradation rate constant k [12]	first-order primary biodegradation rate constant k [13]	first-order primary biodegradation rate constant k [14]	first-order primary biodegradation rate constant k [15]
CC(C)(Oc1ccc(Cl)cc1)C(=O)O [Clofibric acid]	0.0901	0.0769	0.0208	0.0823	0.0358	0.0249	0.0306	0.0243	0.11	0.0409	0.0581	0.034	0.0607		
O=S(=O)(O)NC1CCCCC1 [Cyclamate]	0.0317	0.223	0.0464	0.826		0.0837		0.261	1.66	0.205	0.379	0.24	0.0988	0.0914	
CCCCCCCCCCN [Decylamine]	11.8	54.6	5.65	68.6	29.1			43.8		0.758	11.7			12.1	17.4
CN(C)CCN1C(=O)c2ccccc2N(C)c2ccccc21 [Dibenzepin]	0.0259	0.567	0.127	0.19	0.127	0.215	0.0245	0.0361		0.0239	0.0245	0.0346	0.0723		
COc1c(Cl)ccc(Cl)c1C(=O)O [Dicamba]		0.109							0.229	0.0368		0.0133	0.1	0.107	
O=C(O)Cc1ccccc1Nc1c(Cl)cccc1Cl [Diclofenac]	0.137	0.18		0.0748		0.0701	0.574	0.074	0.158					0.0381	
COCC(C)N(C(=O)CCl)c1c(C)csc1C (configuration not stated) [Dimethenamid]		0.036		0.0238		0.014			0.0244		0.0163	0.0318	0.0152		
CN(C)C(=O)Nc1ccc(Cl)c(Cl)c1 [Diuron]	0.127	0.147	0.044	0.283	0.286	0.166			0.0944			0.0756	0.0899		0.119
CCCCCCCCCCCCN [Dodecylamine]															7.74
CCOC(=O)c1ccc(O)cc1 [Ethylparaben]				0.0419		0.108	0.466	2.12	0.364			0.0177			0.114
CC1(C(=O)Nc2ccc(O)c(Cl)c2Cl)CCCCC1 [Fenhexamid]	0.151	0.656	0.165	0.189	0.641	0.493		0.109	0.189		0.0432		0.988	0.0571	
O=C(NCC1CCCCN1)c1cc(OCC(F)(F)F)ccc1OCC(F)(F)F (configuration not stated) [Flecainide]		0.116	0.0199	0.228		0.0674		1.31	0.0814						0.0658
OC(Cn1cncn1)(Cn1cncn1)c1ccc(F)cc1F [Fluconazole]	0.024	0.00573				0.0588						0.00361			0.311
CC(C)N(C(=O)COc1nnc(C(F)(F)F)s1)c1ccc(F)cc1 [Flufenacet]	0.0427	0.151		0.0323	0.0751		0.0399	0.0442	0.0865			0.0707	0.105		
CNCCC(Oc1ccc(C(F)(F)F)cc1)c1ccccc1 (configuration not stated) [Fluoxetine]	0.797		3.25							0.0571		4.2	2.14		
NS(=O)(=O)c1cc(C(=O)O)c(NCc2ccco2)cc1Cl [Furosemide]	0.0829	0.171	0.0275	0.168	0.0968	0.114	0.359	0.149	0.229	0.0405	0.336	0.155	0.0826	0.0149	
